From PMC10426190 (Breast Cancer Research : BCR, 2023)

System: E2-induced (ER target) genes in MCF7
Assay: Gene expression analysis by RNA-sequencing in MCF7 with E2 stimulation
Assay type: cell-based, human
Settings: MCF7; 1 nM E2 ± 1 μM compound, 24 h
Procedure: MCF7 were cultured in hormone deprivation media (with 10% charcoal-stripped FBS) for at least 3 days before assay. Trypsinized cells were seeded in a 12-well plate, stimulated with 1 nM β-estradiol (E2), and treated with/without 1 μM compounds for 24 h. Total RNA was extracted using the TRIzol reagent according to the manufacturer’s protocol. RNA purity and quantification were evaluated using the NanoDrop 2000 spectrophotometer (Thermo Scientific, USA). RNA integrity was assessed using the Agilent 2100 Bioanalyzer (Agilent Technologies, Santa Clara, CA, USA). Then the libraries were constructed using TruSeq Stranded mRNA LT Sample Prep Kit (Illumina, San Diego, CA, USA) according to the manufacturer’s instructions. The transcriptome sequencing and analysis were conducted by OE Biotech Co., Ltd. (Shanghai, China). The libraries were sequenced on an Illumina HiSeq X Ten platform and 150 bp paired-end reads were generated. […] Raw data (raw reads) of FASTq format were firstly processed using Trimmomatic and the low-quality reads were removed to obtain the clean reads. […] The clean reads were mapped to the human genome (GRCh38) using HISAT2 [27]. FPKM [28] of each gene was calculated using Cufflinks, and the read counts of each gene were obtained by HTSeqcount. Differential expression analysis was performed using the DESeq (2012) R package.
MCF7 with hormone-deprived pre-treatment were administrated ER ligands or not present with 1 nM E2 stimulation for 24 h incubation in a 12-well plate. Total mRNA was isolated from treated cells and sequenced on an Illumina HiSeq X Ten platform. FPKM of each gene was calculated using Cufflinks and Differential expression genes analysis by using the DESeq (2012) R package. […] T47D EFM-19 and HCC1500 cells were grown in RPMI media supplemented with 10% charcoal-stripped FBS for 14 days and then treated with ER antagonist (1 μM) or DMSO in the presence E2 (1nM) stimulation for 24 h before RNA isolation and gene expression analysis as described in methods. […] The uteruses were harvested 24 h after the final doses and stained by toluidine blue. Endometrial height was assessed from the basement membrane to the luminal border (scale bar in green lines: 200 μm), Arrows indicate the uterine epithelium (e).

CC/C(=C(\c1ccc(O)cc1)c1ccc(OCCN(C)C)cc1)c1ccccc1 [4-OH-tamoxifen]
KIF18B expression: 3.84 FPKM | KIFC1 expression: 15.12 FPKM | KLK11 expression: 4.66 FPKM | KNL1 expression: 4.05 FPKM | KNTC1 expression: 6.86 FPKM | LHX2 expression: 1.62 FPKM | LIG1 expression: 23.58 FPKM | LMNB1 expression: 53.86 FPKM | MAD2L1 expression: 7.76 FPKM | MCM2 expression: 31.78 FPKM | MCM3 expression: 34.54 FPKM | MCM4 expression: 49.01 FPKM | MCM5 expression: 13.27 FPKM | MCM6 expression: 24.55 FPKM | MCM7 expression: 84.30 FPKM | MCM10 expression: 3.64 FPKM | MELK expression: 11.34 FPKM | MKI67 expression: 21.80 FPKM | MYB expression: 5.81 FPKM | MYBL1 expression: 1.32 FPKM | MYBL2 expression: 46.03 FPKM | NCAPG2 expression: 19.25 FPKM | NCAPG expression: 7.03 FPKM | NPY1R expression: 8.44 FPKM | ORC1 expression: 3.13 FPKM | ORC6 expression: 7.62 FPKM | PAQR4 expression: 12.98 FPKM | PBK expression: 16.47 FPKM | PCLAF expression: 33.01 FPKM | PCNA expression: 59.31 FPKM | PDZK1 expression: 3.59 FPKM | PGR expression: 1.93 FPKM | PKIB expression: 26.05 FPKM | PKMYT1 expression: 12.25 FPKM | POLA1 expression: 3.09 FPKM | POLA2 expression: 5.57 FPKM | POLD1 expression: 11.86 FPKM | POLE2 expression: 2.61 FPKM | POLE expression: 12.83 FPKM | POLQ expression: 2.74 FPKM | PRIM1 expression: 10.94 FPKM | PRSS23 expression: 68.31 FPKM | RAB31 expression: 11.89 FPKM | RAD51AP1 expression: 5.44 FPKM | RAD51 expression: 4.02 FPKM | RAD54L expression: 4.39 FPKM | RAMP3 expression: 3.44 FPKM | RAPGEFL1 expression: 6.63 FPKM | RBL1 expression: 2.35 FPKM | RECQL4 expression: 13.74 FPKM | RERG expression: 3.48 FPKM | RET expression: 4.49 FPKM | RFC2 expression: 18.64 FPKM | RFC3 expression: 4.62 FPKM | RFC4 expression: 14.31 FPKM | RNASEH2A expression: 30.81 FPKM | RRM1 expression: 20.41 FPKM | RRM2 expression: 33.29 FPKM | RUBCNL expression: 1.01 FPKM | SDK2 expression: 0.95 FPKM | SFXN2 expression: 8.23 FPKM | SHCBP1 expression: 3.43 FPKM | SKA3 expression: 5.48 FPKM | SLC6A14 expression: 24.37 FPKM | SMC2 expression: 7.20 FPKM | SPC24 expression: 7.06 FPKM | SPC25 expression: 7.65 FPKM | STC2 expression: 84.89 FPKM | TACC3 expression: 21.35 FPKM | TCF19 expression: 8.96 FPKM | TCOF1 expression: 10.86 FPKM | TGM2 expression: 3.69 FPKM | TICRR expression: 4.37 FPKM | TK1 expression: 57.95 FPKM | TMEM26 expression: 2.14 FPKM | TMEM164 expression: 10.65 FPKM | TONSL expression: 9.87 FPKM | TOP2A expression: 30.91 FPKM | TP73 expression: 1.32 FPKM | TRIP13 expression: 8.37 FPKM | TUBA1B expression: 555.45 FPKM | TUBB expression: 291.22 FPKM | TYMS expression: 31.45 FPKM | UBE2C expression: 31.96 FPKM | UBE2T expression: 41.94 FPKM | UHRF1 expression: 9.20 FPKM | UNG expression: 32.49 FPKM | WDHD1 expression: 4.95 FPKM | WDR62 expression: 5.88 FPKM | WDR76 expression: 1.87 FPKM | XRCC2 expression: 3.37 FPKM | XRCC3 expression: 8.89 FPKM | ZGRF1 expression: 1.82 FPKM | ZNF367 expression: 5.84 FPKM
